Test results as given in the supplement of paper PMC11451515.

Tests used:
Details in all cases: 48 h
NOMO1 [1] = assay: cell viability relative to DMSO control; higher = less cytotoxic
Procedure, shortened: (§1)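 Leukemia cells (NOMO1 or SEM, 500 cells/well; P12-Ichikawa, 1000 cells/well) were seeded in 5 μl in 1536-well plates after at least four passages of adaptation to each medium. They received library compounds in DMSO by pin dosing, 11 threefold points from 47 μM to 0.79 nM. Luminescence with CellTiter-Glo One was read after 48 h at 37°C. Viability is stated per plate relative to DMSO wells, with cell-free wells as background.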

P12-Ichikawa [2] = assay: as above
Procedure, shortened: as §1

SEM cells [3] = assay: as above
Procedure, shortened: as §1

NOMO1 [4] = assay: AUC of viability dose-response curve (% viability x log10 dose units); higher = less sensitive
Procedure, shortened: (§2)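 Leukemia cells adapted to each medium were seeded in 1536-well plates (500 or 1000 cells/well). They were dosed with library compounds in DMSO at 11 threefold doses, 47 μM to 0.79 nM, for 48 h at 37°C. CellTiter-Glo One luminescence was normalised per plate to DMSO and cell-free wells. Area under the curve was integrated by trapezoidal rule over log10 doses on a four-parameter log-logistic fit; curves exceeding full viability were scaled and curves failing quality control removed.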

P12-Ichikawa [5] = assay: as above
Procedure, shortened: as §2

SEM cells [6] = assay: as above
Procedure, shortened: as §2

CN1CC/C(CC1)=C3\c4ccccc4CC(=O)c2sccc23
cell viability [%]
Details	NOMO1 [1]	P12-Ichikawa [2]	SEM cells [3]
HPLM + 10% dialyzed FBS, 0.000781 µM	120	117	107
HPLM + 10% dialyzed FBS, 0.00234 µM	125	127	110
HPLM + 10% dialyzed FBS, 0.00702 µM	114	123	127
HPLM + 10% dialyzed FBS, 0.0211 µM	121	120	121
HPLM + 10% dialyzed FBS, 0.0632 µM	130	119	119
HPLM + 10% dialyzed FBS, 0.19 µM	128	129	122
HPLM + 10% dialyzed FBS, 0.569 µM	153	134	127
HPLM + 10% dialyzed FBS, 1.71 µM	135	126	133
HPLM + 10% dialyzed FBS, 5.12 µM	110	129	142
HPLM + 10% dialyzed FBS, 15.4 µM	112	120	123
HPLM + 10% dialyzed FBS, 46.1 µM	105	109	110
RPMI 5 mM glucose + 10% FBS, 0.000781 µM	120	–	115
RPMI 5 mM glucose + 10% FBS, 0.00234 µM	123	–	124
RPMI 5 mM glucose + 10% FBS, 0.00702 µM	136	–	123
RPMI 5 mM glucose + 10% FBS, 0.0211 µM	135	–	114
RPMI 5 mM glucose + 10% FBS, 0.0632 µM	136	–	127
RPMI 5 mM glucose + 10% FBS, 0.19 µM	134	–	125
RPMI 5 mM glucose + 10% FBS, 0.569 µM	156	–	126
RPMI 5 mM glucose + 10% FBS, 1.71 µM	131	–	116
RPMI 5 mM glucose + 10% FBS, 5.12 µM	142	–	145
RPMI 5 mM glucose + 10% FBS, 15.4 µM	151	–	129
RPMI 5 mM glucose + 10% FBS, 46.1 µM	128	–	103
RPMI 5 mM glucose + 10% dialyzed FBS, 0.000781 µM	–	–	117
RPMI 5 mM glucose + 10% dialyzed FBS, 0.00234 µM	–	–	114
RPMI 5 mM glucose + 10% dialyzed FBS, 0.00702 µM	–	–	126
RPMI 5 mM glucose + 10% dialyzed FBS, 0.0211 µM	–	–	104
RPMI 5 mM glucose + 10% dialyzed FBS, 0.0632 µM	–	–	119
RPMI 5 mM glucose + 10% dialyzed FBS, 0.19 µM	–	–	129
RPMI 5 mM glucose + 10% dialyzed FBS, 0.569 µM	–	–	135
RPMI 5 mM glucose + 10% dialyzed FBS, 1.71 µM	–	–	108
RPMI 5 mM glucose + 10% dialyzed FBS, 5.12 µM	–	–	128
RPMI 5 mM glucose + 10% dialyzed FBS, 15.4 µM	–	–	106
RPMI 5 mM glucose + 10% dialyzed FBS, 46.1 µM	–	–	113

AUC of viability dose-response curve
Details	NOMO1 [4]	P12-Ichikawa [5]	SEM cells [6]
HPLM + 10% dialyzed FBS	462	472	460
RPMI 5 mM glucose + 10% FBS	463	467	472
RPMI 5 mM glucose + 10% dialyzed FBS	463	470	473

O=C1CCC[C@@H]2[C@H]3CCC[N+]4([O-])CCC[C@@H](CN12)[C@@H]34 (stereo partly specified)
cell viability [%]
Details	NOMO1 [1]	P12-Ichikawa [2]	SEM cells [3]
HPLM + 10% dialyzed FBS, 0.000781 µM	75.3	88.3	61.8
HPLM + 10% dialyzed FBS, 0.00234 µM	92.3	89.2	68.2
HPLM + 10% dialyzed FBS, 0.00702 µM	98.9	100	84.1
HPLM + 10% dialyzed FBS, 0.0211 µM	87.6	102	86.2
HPLM + 10% dialyzed FBS, 0.0632 µM	105	98.8	96.2
HPLM + 10% dialyzed FBS, 0.19 µM	98.2	92.9	94
HPLM + 10% dialyzed FBS, 0.569 µM	88.4	105	89.4
HPLM + 10% dialyzed FBS, 1.71 µM	94.5	102	92.1
HPLM + 10% dialyzed FBS, 5.12 µM	56.9	89.5	71.9
HPLM + 10% dialyzed FBS, 15.4 µM	10.1	98.6	27.1
HPLM + 10% dialyzed FBS, 46.1 µM	5.34	97.7	78.6
RPMI 5 mM glucose + 10% FBS, 0.000781 µM	83.5	83.5	84.7
RPMI 5 mM glucose + 10% FBS, 0.00234 µM	86.8	80.8	87.4
RPMI 5 mM glucose + 10% FBS, 0.00702 µM	86.1	89.7	93.9
RPMI 5 mM glucose + 10% FBS, 0.0211 µM	92.7	95.1	94.7
RPMI 5 mM glucose + 10% FBS, 0.0632 µM	98.7	95.5	89.1
RPMI 5 mM glucose + 10% FBS, 0.19 µM	92	97.2	101
RPMI 5 mM glucose + 10% FBS, 0.569 µM	107	87.7	96.6
RPMI 5 mM glucose + 10% FBS, 1.71 µM	94.1	94.7	99.5
RPMI 5 mM glucose + 10% FBS, 5.12 µM	64.3	87.3	71.5
RPMI 5 mM glucose + 10% FBS, 15.4 µM	22	99.9	18.8
RPMI 5 mM glucose + 10% FBS, 46.1 µM	6.85	88	86.8
RPMI 5 mM glucose + 10% dialyzed FBS, 0.000781 µM	79.1	78.2	89.7
RPMI 5 mM glucose + 10% dialyzed FBS, 0.00234 µM	88.7	84.9	68.5
RPMI 5 mM glucose + 10% dialyzed FBS, 0.00702 µM	93.2	94.1	82.2
RPMI 5 mM glucose + 10% dialyzed FBS, 0.0211 µM	97.4	94	97.9
RPMI 5 mM glucose + 10% dialyzed FBS, 0.0632 µM	97.8	93	85.4
RPMI 5 mM glucose + 10% dialyzed FBS, 0.19 µM	98.7	83.5	96.6
RPMI 5 mM glucose + 10% dialyzed FBS, 0.569 µM	94.4	81.4	102
RPMI 5 mM glucose + 10% dialyzed FBS, 1.71 µM	88.9	90.8	81.4
RPMI 5 mM glucose + 10% dialyzed FBS, 5.12 µM	51.3	90	91.1
RPMI 5 mM glucose + 10% dialyzed FBS, 15.4 µM	29.7	89.6	24
RPMI 5 mM glucose + 10% dialyzed FBS, 46.1 µM	5.35	89.2	88.7

AUC of viability dose-response curve
Details	NOMO1 [4]	P12-Ichikawa [5]	SEM cells [6]
HPLM + 10% dialyzed FBS	364	463	373
RPMI 5 mM glucose + 10% FBS	374	435	406
RPMI 5 mM glucose + 10% dialyzed FBS	369	422	398

C=CCc1cc(OC)c(O)c(C(=O)NCCO)c1
cell viability [%]
Details	NOMO1 [1]	P12-Ichikawa [2]	SEM cells [3]
HPLM + 10% dialyzed FBS, 0.000781 µM	98.4	106	110
HPLM + 10% dialyzed FBS, 0.00234 µM	113	113	101
HPLM + 10% dialyzed FBS, 0.00702 µM	96	109	101
HPLM + 10% dialyzed FBS, 0.0211 µM	105	108	103
HPLM + 10% dialyzed FBS, 0.0632 µM	105	106	116
HPLM + 10% dialyzed FBS, 0.19 µM	113	109	98.7
HPLM + 10% dialyzed FBS, 0.569 µM	107	99.4	112
HPLM + 10% dialyzed FBS, 1.71 µM	106	105	92
HPLM + 10% dialyzed FBS, 5.12 µM	85.7	103	98.6
HPLM + 10% dialyzed FBS, 15.4 µM	81.4	93	69.3
HPLM + 10% dialyzed FBS, 46.1 µM	74.2	98.2	64.3
RPMI 5 mM glucose + 10% FBS, 0.000781 µM	95.3	99.6	97.4
RPMI 5 mM glucose + 10% FBS, 0.00234 µM	112	112	108
RPMI 5 mM glucose + 10% FBS, 0.00702 µM	103	95.4	108
RPMI 5 mM glucose + 10% FBS, 0.0211 µM	96.1	104	110
RPMI 5 mM glucose + 10% FBS, 0.0632 µM	101	113	102
RPMI 5 mM glucose + 10% FBS, 0.19 µM	101	100	112
RPMI 5 mM glucose + 10% FBS, 0.569 µM	96.1	103	98.1
RPMI 5 mM glucose + 10% FBS, 1.71 µM	106	95.4	88
RPMI 5 mM glucose + 10% FBS, 5.12 µM	93.4	101	99.2
RPMI 5 mM glucose + 10% FBS, 15.4 µM	101	93.7	77.1
RPMI 5 mM glucose + 10% FBS, 46.1 µM	87.1	89.4	68.6
RPMI 5 mM glucose + 10% dialyzed FBS, 0.000781 µM	98.5	98.9	110
RPMI 5 mM glucose + 10% dialyzed FBS, 0.00234 µM	99.5	108	83.8
RPMI 5 mM glucose + 10% dialyzed FBS, 0.00702 µM	104	104	99.1
RPMI 5 mM glucose + 10% dialyzed FBS, 0.0211 µM	106	104	102
RPMI 5 mM glucose + 10% dialyzed FBS, 0.0632 µM	109	103	105
RPMI 5 mM glucose + 10% dialyzed FBS, 0.19 µM	98.6	101	113
RPMI 5 mM glucose + 10% dialyzed FBS, 0.569 µM	89.7	105	105
RPMI 5 mM glucose + 10% dialyzed FBS, 1.71 µM	96.7	104	103
RPMI 5 mM glucose + 10% dialyzed FBS, 5.12 µM	87.7	84.4	96.6
RPMI 5 mM glucose + 10% dialyzed FBS, 15.4 µM	84	105	78.4
RPMI 5 mM glucose + 10% dialyzed FBS, 46.1 µM	79.5	94.1	66.8

AUC of viability dose-response curve
Details	NOMO1 [4]	P12-Ichikawa [5]	SEM cells [6]
HPLM + 10% dialyzed FBS	449	457	448
RPMI 5 mM glucose + 10% FBS	462	460	442
RPMI 5 mM glucose + 10% dialyzed FBS	446	466	454
